Measurements taken from ChEMBL document CHEMBL4118135, “Optimized allosteric inhibition of engineered protein tyrosine phosphatases with an expanded palette of biarsenical small molecules” (Bioorg Med Chem, 2018).
Substitutions are numbered along the chain they refer to. Calls of active or inactive are those of the source. The calls are words filed in the database; no cut-off is given here.

Tests used:
[1] = target: Tyrosine-protein phosphatase non-receptor type 13 (Homo sapiens) (UniProt Q12923); assay: Inhibition of allosterically sensitized mutant form of His6-tagged human FAP1 catalytic domain at 500 nM using pNPP as substrate incubated for 90 mins by quenched phosphatase activity assay
Chain of Tyrosine-protein phosphatase non-receptor type 13 (Homo sapiens) (Q12923 whole entry, the tested form may be a part): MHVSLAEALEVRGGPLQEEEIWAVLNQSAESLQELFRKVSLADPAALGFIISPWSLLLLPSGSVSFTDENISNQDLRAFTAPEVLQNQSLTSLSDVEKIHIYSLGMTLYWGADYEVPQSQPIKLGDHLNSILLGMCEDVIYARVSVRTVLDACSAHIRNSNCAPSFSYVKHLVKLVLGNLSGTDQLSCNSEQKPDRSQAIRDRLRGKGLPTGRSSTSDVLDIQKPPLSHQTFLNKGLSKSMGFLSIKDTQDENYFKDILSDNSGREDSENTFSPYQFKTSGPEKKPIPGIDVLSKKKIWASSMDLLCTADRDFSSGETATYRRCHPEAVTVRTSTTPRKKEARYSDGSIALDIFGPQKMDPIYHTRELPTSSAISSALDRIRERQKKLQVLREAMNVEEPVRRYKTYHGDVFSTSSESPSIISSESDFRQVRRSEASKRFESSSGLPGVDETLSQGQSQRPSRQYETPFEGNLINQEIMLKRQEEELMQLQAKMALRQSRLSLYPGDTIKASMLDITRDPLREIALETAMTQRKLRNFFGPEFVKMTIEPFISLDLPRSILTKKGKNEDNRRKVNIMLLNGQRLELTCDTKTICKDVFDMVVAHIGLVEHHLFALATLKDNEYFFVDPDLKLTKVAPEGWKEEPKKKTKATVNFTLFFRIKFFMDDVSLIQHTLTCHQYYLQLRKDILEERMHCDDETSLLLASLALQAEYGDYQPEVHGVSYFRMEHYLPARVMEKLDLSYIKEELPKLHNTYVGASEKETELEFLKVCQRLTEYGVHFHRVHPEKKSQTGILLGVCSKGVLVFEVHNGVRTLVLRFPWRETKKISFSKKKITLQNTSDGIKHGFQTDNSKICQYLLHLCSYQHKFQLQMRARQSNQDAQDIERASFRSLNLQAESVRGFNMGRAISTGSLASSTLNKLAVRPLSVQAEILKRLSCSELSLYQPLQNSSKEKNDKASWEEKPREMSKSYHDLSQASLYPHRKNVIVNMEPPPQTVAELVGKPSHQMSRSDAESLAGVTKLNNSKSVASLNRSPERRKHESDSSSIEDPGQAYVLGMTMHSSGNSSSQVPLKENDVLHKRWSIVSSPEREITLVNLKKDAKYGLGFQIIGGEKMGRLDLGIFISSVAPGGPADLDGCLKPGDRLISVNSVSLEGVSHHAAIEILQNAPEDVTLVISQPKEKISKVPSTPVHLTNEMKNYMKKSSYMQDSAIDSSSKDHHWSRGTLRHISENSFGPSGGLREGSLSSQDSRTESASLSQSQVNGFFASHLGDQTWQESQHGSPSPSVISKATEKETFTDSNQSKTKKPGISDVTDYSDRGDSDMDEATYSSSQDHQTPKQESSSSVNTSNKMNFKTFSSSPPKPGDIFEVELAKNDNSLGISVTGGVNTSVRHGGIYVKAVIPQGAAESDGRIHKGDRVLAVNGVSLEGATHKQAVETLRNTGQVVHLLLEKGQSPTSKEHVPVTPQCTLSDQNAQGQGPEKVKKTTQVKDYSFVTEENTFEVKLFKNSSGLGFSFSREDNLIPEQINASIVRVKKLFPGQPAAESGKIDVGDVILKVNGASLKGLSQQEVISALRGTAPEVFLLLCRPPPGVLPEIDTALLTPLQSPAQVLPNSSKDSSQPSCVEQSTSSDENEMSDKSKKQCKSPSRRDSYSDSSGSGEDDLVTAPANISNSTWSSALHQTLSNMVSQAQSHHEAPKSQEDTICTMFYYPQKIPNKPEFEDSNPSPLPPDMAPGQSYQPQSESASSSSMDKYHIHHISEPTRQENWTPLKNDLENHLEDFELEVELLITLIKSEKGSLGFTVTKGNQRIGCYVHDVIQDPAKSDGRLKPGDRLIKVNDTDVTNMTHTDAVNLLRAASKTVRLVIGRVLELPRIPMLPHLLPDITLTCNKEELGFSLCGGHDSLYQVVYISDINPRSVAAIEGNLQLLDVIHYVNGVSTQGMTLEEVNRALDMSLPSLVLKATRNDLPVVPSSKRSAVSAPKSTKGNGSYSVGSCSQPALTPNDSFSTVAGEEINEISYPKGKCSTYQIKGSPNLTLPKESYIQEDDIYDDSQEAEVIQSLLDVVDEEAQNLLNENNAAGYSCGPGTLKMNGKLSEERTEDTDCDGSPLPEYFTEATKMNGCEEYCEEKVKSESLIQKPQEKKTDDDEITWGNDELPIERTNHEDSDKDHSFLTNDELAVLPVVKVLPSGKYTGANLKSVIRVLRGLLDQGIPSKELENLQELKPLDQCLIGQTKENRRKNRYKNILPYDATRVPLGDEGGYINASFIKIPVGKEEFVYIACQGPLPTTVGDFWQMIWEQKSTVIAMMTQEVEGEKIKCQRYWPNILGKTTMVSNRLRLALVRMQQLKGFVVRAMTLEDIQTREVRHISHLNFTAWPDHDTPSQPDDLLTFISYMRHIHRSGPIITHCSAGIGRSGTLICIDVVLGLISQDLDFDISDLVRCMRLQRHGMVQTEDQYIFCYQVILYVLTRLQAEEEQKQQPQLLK

[2] = test system: T1, Tyrosine-protein phosphatase non-receptor type 1 (Homo sapiens), P18031 [P87C,A122C]; assay: Inhibition of allosterically sensitized His6-tagged human PTP1B catalytic domain P87C/A122C mutant at 250 nM using pNPP as substrate incubated for 90 mins by quenched phosphatase activity assay
T1 sequence (whole entry): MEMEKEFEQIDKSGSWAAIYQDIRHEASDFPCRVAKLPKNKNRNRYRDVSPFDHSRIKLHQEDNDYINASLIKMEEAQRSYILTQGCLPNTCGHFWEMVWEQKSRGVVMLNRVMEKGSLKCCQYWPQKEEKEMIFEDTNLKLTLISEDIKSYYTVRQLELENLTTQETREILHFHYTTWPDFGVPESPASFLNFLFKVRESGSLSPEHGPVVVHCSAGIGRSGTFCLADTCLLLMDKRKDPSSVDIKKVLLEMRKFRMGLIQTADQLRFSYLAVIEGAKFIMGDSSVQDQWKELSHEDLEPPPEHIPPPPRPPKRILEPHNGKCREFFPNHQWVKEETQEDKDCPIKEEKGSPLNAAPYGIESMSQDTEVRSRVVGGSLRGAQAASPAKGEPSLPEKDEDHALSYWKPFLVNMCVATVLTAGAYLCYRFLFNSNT

[3] = target: T2, Tyrosine-protein phosphatase non-receptor type 11 (Homo sapiens) (UniProt Q06124); assay: Inhibition of allosterically sensitized mutant form of His6-tagged human SHP2 catalytic domain at 500 nM at 500 nM using pNPP as substrate incubated for 90 mins by quenched phosphatase activity assay
T2 sequence (whole entry): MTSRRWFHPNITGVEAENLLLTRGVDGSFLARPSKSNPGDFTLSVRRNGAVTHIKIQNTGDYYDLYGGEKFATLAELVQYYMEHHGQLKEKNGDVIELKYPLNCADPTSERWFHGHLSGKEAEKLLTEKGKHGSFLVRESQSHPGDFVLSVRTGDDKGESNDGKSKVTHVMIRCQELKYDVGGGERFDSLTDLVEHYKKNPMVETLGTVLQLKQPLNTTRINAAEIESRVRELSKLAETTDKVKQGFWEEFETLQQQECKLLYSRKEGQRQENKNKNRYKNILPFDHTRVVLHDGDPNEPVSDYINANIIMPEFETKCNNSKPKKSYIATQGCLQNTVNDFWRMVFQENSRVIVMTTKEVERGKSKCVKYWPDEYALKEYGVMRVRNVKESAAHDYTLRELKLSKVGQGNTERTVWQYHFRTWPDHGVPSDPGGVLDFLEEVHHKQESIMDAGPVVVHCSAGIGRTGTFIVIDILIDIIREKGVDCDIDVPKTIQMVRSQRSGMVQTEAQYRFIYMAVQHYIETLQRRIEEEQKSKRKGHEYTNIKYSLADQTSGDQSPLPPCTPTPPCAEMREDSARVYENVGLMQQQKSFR

[4] = target: Tyrosine-protein phosphatase non-receptor type 1 (Homo sapiens, UniProt P18031, A122C/P87C); assay: Inhibition of allosterically sensitized His6-tagged human PTP1B catalytic domain P87C/A122C mutant using pNPP as substrate incubated for 90 mins by quenched phosphatase activity assay
[5] = target: T2, Tyrosine-protein phosphatase non-receptor type 11 (Homo sapiens); assay: Inhibition of allosterically sensitized mutant form of His6-tagged human SHP2 containing SHP1 and […] SH2 domain at 500 nM at 500 nM using pNPP as substrate incubated for 90 mins by quenched phosphatase activity assay
[6] = test system: T3, Tyrosine-protein phosphatase non-receptor type 7 (Homo sapiens), P35236 [P171C,V205C]; assay: Inhibition of allosterically sensitized mutant form of His6-tagged human HePTP catalytic domain at 500 nM using pNPP as substrate incubated for 90 mins by quenched phosphatase activity assay
T3 sequence (whole entry): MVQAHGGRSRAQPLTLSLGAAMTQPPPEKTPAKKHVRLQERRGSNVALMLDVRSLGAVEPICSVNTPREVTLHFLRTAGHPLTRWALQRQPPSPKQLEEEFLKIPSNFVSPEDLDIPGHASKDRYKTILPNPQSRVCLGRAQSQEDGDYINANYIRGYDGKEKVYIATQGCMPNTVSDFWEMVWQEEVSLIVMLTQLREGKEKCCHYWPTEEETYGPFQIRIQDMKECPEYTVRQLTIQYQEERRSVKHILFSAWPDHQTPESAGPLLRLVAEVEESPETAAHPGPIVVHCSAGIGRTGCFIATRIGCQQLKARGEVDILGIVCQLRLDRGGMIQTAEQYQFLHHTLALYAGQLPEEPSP

[7] = species: Homo sapiens; assay: Inhibition of His6-tagged human wild-type PTP catalytic domain at 500 nM using pNPP as substrate incubated for 90 mins by quenched phosphatase activity assay
[8] = target: Tyrosine-protein phosphatase non-receptor type 6 (Homo sapiens) (UniProt P29350); assay: Inhibition of allosterically sensitized mutant form of His6-tagged human SHP1 catalytic domain at 500 nM using pNPP as substrate incubated for 90 mins by quenched phosphatase activity assay
Chain of Tyrosine-protein phosphatase non-receptor type 6 (Homo sapiens) (P29350 whole entry, the tested form may be a part): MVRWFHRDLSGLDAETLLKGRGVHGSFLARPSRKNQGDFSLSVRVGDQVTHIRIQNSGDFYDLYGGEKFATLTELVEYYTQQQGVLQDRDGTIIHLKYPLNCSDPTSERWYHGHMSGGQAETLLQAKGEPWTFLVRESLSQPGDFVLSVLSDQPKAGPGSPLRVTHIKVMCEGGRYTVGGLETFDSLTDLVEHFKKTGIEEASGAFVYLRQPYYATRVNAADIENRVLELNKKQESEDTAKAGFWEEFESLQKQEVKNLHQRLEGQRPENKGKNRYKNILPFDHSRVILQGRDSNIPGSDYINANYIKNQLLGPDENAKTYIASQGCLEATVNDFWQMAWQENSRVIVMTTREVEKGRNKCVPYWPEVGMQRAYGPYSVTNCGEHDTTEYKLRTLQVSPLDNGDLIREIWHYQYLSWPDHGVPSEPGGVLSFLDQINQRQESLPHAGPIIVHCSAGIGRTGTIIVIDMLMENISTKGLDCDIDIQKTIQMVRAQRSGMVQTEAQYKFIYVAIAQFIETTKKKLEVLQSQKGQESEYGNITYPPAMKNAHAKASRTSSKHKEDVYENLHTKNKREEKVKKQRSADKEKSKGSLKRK

[9] = test system: T1, Tyrosine-protein phosphatase non-receptor type 1 (Homo sapiens), P18031 [P87C,A122C]; assay: Binding affinity to allosterically sensitized His6-tagged human PTP1B catalytic domain P87C/A122C mutant overexpressed in Escherichia coli crude cell lysate incubated for 90 mins by SDS-PAGE and LC-MS/MS method
[10] = target: T4, Tyrosine-protein phosphatase non-receptor type 1 (Homo sapiens) (UniProt P18031); assay: Inhibition of His6-tagged human wild-type PTP1B catalytic domain overexpressed in Escherichia coli BL21(DE3) cells at 100 uM using pNPP as substrate incubated for 90 mins by quenched phosphatase activity assay
T4 sequence (whole entry): T1 sequence (whole entry) with C87P, C122A

[11] = test system: T3, Tyrosine-protein phosphatase non-receptor type 7 (Homo sapiens), P35236 [P171C,V205C]; assay: Binding affinity to allosterically sensitized mutant form of His6-tagged human HePTP catalytic domain overexpressed in Escherichia coli BL21(DE3) cells at 50 to 100 uM after 90 mins by SDS-PAGE analysis
[12] = test system: T3, Tyrosine-protein phosphatase non-receptor type 7 (Homo sapiens), P35236 [P171C,V205C]; assay: Inhibition of allosterically sensitized mutant form of His6-tagged human HePTP at 1000 nM using pNPP as substrate measured at 5 mins by quenched phosphatase activity assay

| Compound | inhibition [1] | inhibition [2] | inhibition [3] | IC50 [4] [nM] | inhibition [5] | inhibition [6] | inhibition [7] | inhibition [8] | Activity [9] | inhibition [10] | Activity [11] | inhibition [12] [%] |
| --- | --- | --- | --- | --- | --- | --- | --- | --- | --- | --- | --- | --- |
| CC1(C)C(/C=C/C=C2/N(CCCCS(=O)(=O)O)c3ccc([As]4SCCS4)cc3C2(C)C)=[N+](CCCCS(=O)(=O)O)c2ccc([As]3SCCS3)cc21 | Active | 70% | inactive | 125 | inactive | inactive | Active | Active | Dose-dependent effect | inactive | – | – |
| O=C(O)c1ccccc1-c1c2ccc(=O)c([As]3SCCS3)c-2oc2c([As]3SCCS3)c(O)ccc12 | Active | Active | Active | – | Active | Active | Active | Active | – | – | Active | 70 |
